# According to ChEMBL document CHEMBL1201862, “PubChem BioAssay data set” (2004):
# Activity calls are given as the source filed them.
# Legend:
# Escherichia coli [1] = assay: microbe, parasite or virus in culture
# [2] = biological target: Induced myeloid leukemia cell differentiation protein Mcl-1 (Homo sapiens, UniProt Q07820); format: functional
# Genome polyprotein = Genome polyprotein (dengue virus type 2, UniProt P29990); assay: Dengue-2 NS5 methyltransferase inhibitors, primary screen, biochemical, confirmation dose response (AID 588689); format: functional
# Keap1/Nrf2 = Keap1/Nrf2 (Homo sapiens, UniProt Q14145); assay: Keap1-Nrf2 protein-protein interaction inhibitors, dose response, biochemical, fluorescence polarization, cherry-picked samples (AID 588683)
# Aminopeptidase N = biological target: T1, Aminopeptidase N (Plasmodium falciparum FcB1/Columbia, UniProt O96935); assay: P. falciparum M1AAP inhibitors, biochemical, fluorogenic H-Leu-NHMec substrate, 1536-well (AID 1445); set-up: species or system Plasmodium falciparum 3D7, 3D7
# T1 sequence (O96935 whole entry): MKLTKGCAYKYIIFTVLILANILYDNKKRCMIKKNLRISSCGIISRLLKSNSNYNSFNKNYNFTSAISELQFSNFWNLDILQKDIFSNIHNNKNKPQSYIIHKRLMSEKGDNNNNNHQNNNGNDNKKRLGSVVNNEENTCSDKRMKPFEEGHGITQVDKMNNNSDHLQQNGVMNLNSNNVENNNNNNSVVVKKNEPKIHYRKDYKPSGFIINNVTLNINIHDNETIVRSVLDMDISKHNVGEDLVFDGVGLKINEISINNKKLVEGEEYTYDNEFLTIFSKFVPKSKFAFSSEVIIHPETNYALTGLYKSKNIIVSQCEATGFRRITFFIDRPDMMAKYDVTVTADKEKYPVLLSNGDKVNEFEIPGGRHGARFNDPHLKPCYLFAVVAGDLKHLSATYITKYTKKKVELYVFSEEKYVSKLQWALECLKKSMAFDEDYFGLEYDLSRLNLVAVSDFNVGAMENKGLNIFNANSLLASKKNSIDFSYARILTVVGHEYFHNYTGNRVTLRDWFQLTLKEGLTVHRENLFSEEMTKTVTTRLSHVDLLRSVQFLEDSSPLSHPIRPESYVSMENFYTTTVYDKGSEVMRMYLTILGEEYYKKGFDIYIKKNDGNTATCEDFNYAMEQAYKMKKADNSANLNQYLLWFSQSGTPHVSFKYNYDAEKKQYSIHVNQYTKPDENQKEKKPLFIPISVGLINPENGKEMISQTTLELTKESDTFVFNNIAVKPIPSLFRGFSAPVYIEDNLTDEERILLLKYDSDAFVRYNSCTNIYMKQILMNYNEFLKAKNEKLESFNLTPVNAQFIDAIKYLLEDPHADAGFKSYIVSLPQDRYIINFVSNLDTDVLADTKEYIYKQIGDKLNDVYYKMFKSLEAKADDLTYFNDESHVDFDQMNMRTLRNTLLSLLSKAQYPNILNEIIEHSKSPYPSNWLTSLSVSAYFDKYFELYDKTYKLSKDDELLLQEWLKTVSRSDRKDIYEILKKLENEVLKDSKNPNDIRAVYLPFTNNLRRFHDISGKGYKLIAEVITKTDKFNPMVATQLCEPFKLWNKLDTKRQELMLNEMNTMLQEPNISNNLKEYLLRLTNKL
# Phospholipase A2 = Phospholipase A2 (Homo sapiens, UniProt P04054); format: functional;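 note: confirmatory dose-response counterscreen on phospholipase A2, testing hits that came from an ultra-high-throughput screen for ATG4B inhibitors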
# Prothrombin = Prothrombin (Homo sapiens, UniProt P00734); assay: Thrombin 1536 HTS Dose Response Confirmation. [Related pubchem assays: 1046 (Thrombin 1536 HTS; hits were confirmed in this assay)]; format: functional
# Cysteine protease ATG4B = Cysteine protease ATG4B (Homo sapiens, UniProt Q9Y4P1); format: functional;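 note: Fluorescence-based dose-response confirmation assay measuring inhibition of ATG4B activity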
# cells = format: functional
# Escherichia coli [3] = assay: microbe, parasite or virus in culture; remark: listed apart in the source
# [4] = tested on: Streptococcus sp. 'group A'; assay: growth inhibition of control SK(-) GAS strain, dose response, counter-screen for streptokinase expression inhibitor project, luminescence, kanamycin, BacTiterGlo, confirmation (AID 1900); format: functional, organism-based
# Streptococcus = assay: Group A Streptococcus viability loss, dose response, counter-screen for streptokinase expression inhibitor project, luminescence, BacTiterGlo (AID 1915); format: functional, organism-based;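 note: potency for reduction of bacterial viability or growth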
# Trypsin = Trypsin (Sus scrofa, UniProt P00761); assay: porcine trypsin inhibitors, dose response, selectivity assay for Rce1 protease inhibitor project, biochemical, quenched peptide fluorescence, cherry-pick (AID 488789)
# CAAX prenyl protease 2 = CAAX prenyl protease 2 (Homo sapiens, UniProt Q9Y256); assay: human Rce1 protease inhibitors, dose response, biochemical, yeast membranes, quenched-peptide fluorescence, cherry-pick (AID 588849)
# [5] = cytotoxicity toward NIH3T3 fibroblasts, dose response, counter-screen, cell-based, ATP luminescence, mouse fibroblasts (AID 2010); format: functional;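 note: cells exposed to compound for about 90 hours before reading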
# [6] = inhibitors of intracellular T. cruzi replication, confirmation, NIH3T3 host cells, beta-gal luminescence (AID 2044); format: functional, cell-based;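 note: intracellular parasites grown in NIH/3T3 mouse fibroblasts as host cells; luminescent beta-galactosidase reporter signal from transgenic T. cruzi replicating inside host cells; inhibitors lower the luminescence signal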
# [7] = biological target: Dual specificity tyrosine-phosphorylation-regulated kinase 1A (Rattus norvegicus, UniProt Q63470); format: biochemical, Homo sapiens
# [8] = biological target: T2, Type-1 angiotensin II receptor (Homo sapiens, UniProt P30556); assay: AT1 receptor antagonists, dose response, selectivity assay for APJ receptor antagonist project, cell-based, uHTS hits (AID 463214); format: functional;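 note: antagonist potency against angiotensin II stimulated AT1 response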
# T2 sequence (P30556 whole entry): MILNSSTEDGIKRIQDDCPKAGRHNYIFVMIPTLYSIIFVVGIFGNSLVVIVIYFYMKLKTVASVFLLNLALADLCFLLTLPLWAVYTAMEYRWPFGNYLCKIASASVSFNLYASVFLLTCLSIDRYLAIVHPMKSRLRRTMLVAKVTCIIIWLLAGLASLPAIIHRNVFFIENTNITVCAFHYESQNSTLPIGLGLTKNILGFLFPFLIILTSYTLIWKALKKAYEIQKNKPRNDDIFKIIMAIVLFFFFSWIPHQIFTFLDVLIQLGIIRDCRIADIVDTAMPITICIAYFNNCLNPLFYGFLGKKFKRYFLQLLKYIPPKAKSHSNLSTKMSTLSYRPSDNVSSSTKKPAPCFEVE
# Beta-galactosidase = Beta-galactosidase (Escherichia coli, UniProt Q8VNN2); assay: PubChem AID 485352; format: functional
# [9] = Luminescence Cell-Based Dose Retest to Confirm Inhibitors of Cancer Stem Cells. [Related pubchem assays (depositor defined):AID2717, AID2721]; format: functional; settings: Homo sapiens
# Vero [10] = assay: cells; format: functional, cell-based; settings: Chlorocebus sabaeus
# INS1 = assay: beta cell apoptosis inhibitors, cytokine rescue, dose response, luminescence, retest (AID 449756); format: functional, cell-based; settings: Rattus norvegicus;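 note: cell death triggered by IL-1 beta plus TNF-alpha plus IFN-gamma mixture; protective hits raise ATP signal compared with cytokine alone wells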
# Vero [11] = assay: cells; format: functional; settings: Chlorocebus sabaeus
# A-375 [12] = assay: MITF: Counter assay: A375 proliferation Measured in Cell-Based System Using Plate Reader - 2084-03_Inhibitor_Dose_DryPowder_Activity. [Related pubchem assays (depositor defined):AID488944]; format: functional; settings: Homo sapiens
# [13] = cytotoxicity in HMLE control line with eGFP shRNA, dose response, counter-screen for HMLE_sh_ECad selective toxicity project, cell-based, HMLE_sh_eGFP, luminescence (AID 463074); format: functional, Homo sapiens;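 note: HMLE human mammary epithelial cells expressing control shRNA against eGFP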
# Vero [14] = assay: host cell cytotoxicity of antiviral hits, dose response, cytotoxicity control for West Nile virus antiviral project, secondary assay (AID 1650); format: functional; settings: Chlorocebus sabaeus
# [15] = cytotoxicity in HEK-293T cells, dose response, cytotoxicity control for BCR NF-kB inhibitor project, luminescence, B-cell screen hits (AID 489021); format: functional, cell-based;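 note: HEK-293T cells carrying an NF-kB luciferase reporter; cells exposed to compound for about 14 hours before viability readout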
# [16] = biological target: Microphthalmia-associated transcription factor (Homo sapiens, UniProt O75030); assay: TRPM1 promoter luciferase signal decrease, dose response, MITF inhibitor project, cell-based, SK-MEL-5, cherry-picked, set 3 (AID 493073); format: functional
# A-375 [17] = assay: A375 melanoma cell viability reduction, dose response, counter-screen for MITF modulator project, cherry-pick samples, set 2 (AID 540335); format: functional, cell-based; settings: Homo sapiens
# Vero [18] = assay: Vero cell cytotoxicity, cytotoxicity control for flavivirus capping enzyme inhibitors (AID 588742); format: functional; settings: Chlorocebus sabaeus
# [19] = biological target: Serine/threonine-protein phosphatase (Candida dubliniensis (strain CD36 / CBS 7987 / NCPF 3949 / NRRLY-17841) (Yeast), UniProt B9W6M3); assay: calcineurin pathway inhibitors in yeast reporter, dose response, S. cerevisiae, CDRE-lacZ, luminescence, secondary (AID 2388); format: functional, cell-based;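 note: yeast reporter cells carrying a calcineurin-responsive lacZ construct stimulated with calcium chloride; luminescent beta-galactosidase reporter signal in whole cells rather than isolated phosphatase activity; potency for inhibition where a drop in reporter signal means calcineurin blockade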
# [20] = biological target: ATP-dependent molecular chaperone HSP82 (Candida albicans (strain WO-1) (Yeast), UniProt C4YTQ8); assay: loss of DOC-induced GRE-beta-galactosidase reporter signal, dose response, Hsp90 inhibitor project, S. cerevisiae, luminescence (AID 2400); format: functional, cell-based;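 note: beta-galactosidase luminescence from glucocorticoid response element reporter as proxy for Hsp90 function; inhibitor potency where signal loss means Hsp90 inhibition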
# [21] = NIH-3T3 fibroblast cytotoxicity, dose response, cytotoxicity control, cell-based, fluorescence, Alamar Blue, secondary assay (AID 2327); format: functional;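 note: NIH-3T3 mouse fibroblasts cultured with fluconazole at 8 µg/mL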
# [22] = C. albicans growth with fluconazole, confirmation, fluorescence, retest (AID 2467); format: functional, cell-based
# HeLa = assay: HeLa cell cytotoxicity, dose response, cytotoxicity control for MITF activator project, CellTiter-Glo luminescence, cherry-pick samples (AID 540259); format: functional, cell-based; settings: Homo sapiens
# [23] = biological target: Beta-2 adrenergic receptor (Homo sapiens, UniProt P07550); assay: beta2AR agonists driving receptor internalization, dose response, cell-based, FAP fluorogen, flow cytometry, cherry pick 1 (AID 588763); format: functional
# [24] = biological target: SWI/SNF-related matrix-associated actin-dependent regulator of chromatin subfamily A member 2 (Homo sapiens, UniProt P51531); assay: Luminescence-based cell-based high throughput dose response assay to identify activators of the function of SWI/SNF related, matrix associated, actin dependent regulator of chromatin, subfamily a, member 2 (SMARCA2, BRM).; format: functional
# [25] = Counterscreen for activators of the function of SWI/SNF related, matrix associated, actin dependent regulator of chromatin, subfamily a, member 2 (SMARCA2, BRM): Luminescence-based cell-based high throughput dose response assay to identify non-selective compounds using the VP16 reporter assay.; format: functional
# HEK293 [26] = assay: cells; settings: Homo sapiens
# HEK293 [27] = assay: cells; settings: Homo sapiens; remark: listed apart in the source
# Phospholipase A2, sequence (P04054 whole entry): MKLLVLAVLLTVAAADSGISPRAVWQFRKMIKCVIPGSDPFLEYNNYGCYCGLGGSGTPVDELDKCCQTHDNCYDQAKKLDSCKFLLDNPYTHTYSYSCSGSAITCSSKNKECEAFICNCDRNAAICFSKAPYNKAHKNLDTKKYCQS
# CAAX prenyl protease 2, sequence (Q9Y256 whole entry): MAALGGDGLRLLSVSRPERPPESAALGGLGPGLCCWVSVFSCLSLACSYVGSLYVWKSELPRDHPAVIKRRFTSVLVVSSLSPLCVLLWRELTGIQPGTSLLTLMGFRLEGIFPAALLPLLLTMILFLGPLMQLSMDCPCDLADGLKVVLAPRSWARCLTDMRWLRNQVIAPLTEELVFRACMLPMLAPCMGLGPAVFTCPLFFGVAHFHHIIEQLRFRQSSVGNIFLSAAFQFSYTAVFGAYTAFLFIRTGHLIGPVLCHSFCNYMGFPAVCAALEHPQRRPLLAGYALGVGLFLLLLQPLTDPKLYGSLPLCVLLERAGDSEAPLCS
# Genome polyprotein, sequence (P29990 2492-3391 limits assumed): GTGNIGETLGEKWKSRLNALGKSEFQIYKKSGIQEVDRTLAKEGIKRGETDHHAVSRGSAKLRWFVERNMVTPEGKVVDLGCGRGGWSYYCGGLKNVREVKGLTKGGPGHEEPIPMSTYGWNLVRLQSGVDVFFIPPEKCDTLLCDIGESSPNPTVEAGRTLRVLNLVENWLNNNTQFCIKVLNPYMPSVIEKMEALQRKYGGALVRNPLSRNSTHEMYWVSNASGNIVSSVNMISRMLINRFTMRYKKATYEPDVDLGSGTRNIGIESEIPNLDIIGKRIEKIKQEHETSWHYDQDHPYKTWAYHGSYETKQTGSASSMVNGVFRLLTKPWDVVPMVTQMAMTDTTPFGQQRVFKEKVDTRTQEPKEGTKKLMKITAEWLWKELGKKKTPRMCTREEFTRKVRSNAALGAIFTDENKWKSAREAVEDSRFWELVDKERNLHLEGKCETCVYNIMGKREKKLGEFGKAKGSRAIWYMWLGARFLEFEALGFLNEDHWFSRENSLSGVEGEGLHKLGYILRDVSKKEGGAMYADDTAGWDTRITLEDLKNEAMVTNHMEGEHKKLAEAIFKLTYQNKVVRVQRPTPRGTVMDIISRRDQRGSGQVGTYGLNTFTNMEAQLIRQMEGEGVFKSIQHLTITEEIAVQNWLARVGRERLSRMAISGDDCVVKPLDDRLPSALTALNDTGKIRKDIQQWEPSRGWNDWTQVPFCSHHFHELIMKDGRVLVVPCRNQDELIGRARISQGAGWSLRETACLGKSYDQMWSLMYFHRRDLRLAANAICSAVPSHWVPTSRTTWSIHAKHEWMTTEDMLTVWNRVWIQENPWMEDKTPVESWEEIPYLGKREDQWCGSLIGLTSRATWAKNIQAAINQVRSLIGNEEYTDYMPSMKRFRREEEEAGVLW
# Cysteine protease ATG4B, sequence (Q9Y4P1 whole entry): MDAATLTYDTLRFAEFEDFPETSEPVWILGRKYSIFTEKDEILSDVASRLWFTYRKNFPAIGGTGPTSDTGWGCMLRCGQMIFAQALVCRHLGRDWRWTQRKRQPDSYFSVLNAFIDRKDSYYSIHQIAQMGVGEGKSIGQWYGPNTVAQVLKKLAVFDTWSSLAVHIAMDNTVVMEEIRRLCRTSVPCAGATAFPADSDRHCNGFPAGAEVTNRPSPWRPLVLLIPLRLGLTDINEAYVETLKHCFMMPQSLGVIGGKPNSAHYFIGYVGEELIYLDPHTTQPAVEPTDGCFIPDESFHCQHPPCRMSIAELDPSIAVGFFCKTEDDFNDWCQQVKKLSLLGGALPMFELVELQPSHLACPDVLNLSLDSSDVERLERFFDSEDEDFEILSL
# Trypsin, sequence (P00761 whole entry): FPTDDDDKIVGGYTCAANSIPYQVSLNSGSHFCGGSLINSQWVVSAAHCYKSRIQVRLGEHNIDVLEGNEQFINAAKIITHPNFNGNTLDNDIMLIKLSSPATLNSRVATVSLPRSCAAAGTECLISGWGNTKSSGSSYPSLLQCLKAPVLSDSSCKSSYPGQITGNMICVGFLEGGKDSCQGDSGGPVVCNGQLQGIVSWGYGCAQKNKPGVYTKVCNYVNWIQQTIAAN
# Induced myeloid leukemia cell differentiation protein Mcl-1, sequence (Q07820 whole entry): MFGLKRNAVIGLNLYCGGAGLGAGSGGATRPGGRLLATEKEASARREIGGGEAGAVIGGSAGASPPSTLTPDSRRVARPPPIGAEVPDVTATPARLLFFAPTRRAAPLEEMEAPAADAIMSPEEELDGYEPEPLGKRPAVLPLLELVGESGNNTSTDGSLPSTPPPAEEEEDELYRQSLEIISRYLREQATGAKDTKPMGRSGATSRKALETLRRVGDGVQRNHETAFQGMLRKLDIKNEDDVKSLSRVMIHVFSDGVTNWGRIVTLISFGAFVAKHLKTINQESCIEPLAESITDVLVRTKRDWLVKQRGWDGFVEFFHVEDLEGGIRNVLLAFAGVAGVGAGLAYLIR
# Beta-galactosidase, sequence (Q8VNN2 whole entry): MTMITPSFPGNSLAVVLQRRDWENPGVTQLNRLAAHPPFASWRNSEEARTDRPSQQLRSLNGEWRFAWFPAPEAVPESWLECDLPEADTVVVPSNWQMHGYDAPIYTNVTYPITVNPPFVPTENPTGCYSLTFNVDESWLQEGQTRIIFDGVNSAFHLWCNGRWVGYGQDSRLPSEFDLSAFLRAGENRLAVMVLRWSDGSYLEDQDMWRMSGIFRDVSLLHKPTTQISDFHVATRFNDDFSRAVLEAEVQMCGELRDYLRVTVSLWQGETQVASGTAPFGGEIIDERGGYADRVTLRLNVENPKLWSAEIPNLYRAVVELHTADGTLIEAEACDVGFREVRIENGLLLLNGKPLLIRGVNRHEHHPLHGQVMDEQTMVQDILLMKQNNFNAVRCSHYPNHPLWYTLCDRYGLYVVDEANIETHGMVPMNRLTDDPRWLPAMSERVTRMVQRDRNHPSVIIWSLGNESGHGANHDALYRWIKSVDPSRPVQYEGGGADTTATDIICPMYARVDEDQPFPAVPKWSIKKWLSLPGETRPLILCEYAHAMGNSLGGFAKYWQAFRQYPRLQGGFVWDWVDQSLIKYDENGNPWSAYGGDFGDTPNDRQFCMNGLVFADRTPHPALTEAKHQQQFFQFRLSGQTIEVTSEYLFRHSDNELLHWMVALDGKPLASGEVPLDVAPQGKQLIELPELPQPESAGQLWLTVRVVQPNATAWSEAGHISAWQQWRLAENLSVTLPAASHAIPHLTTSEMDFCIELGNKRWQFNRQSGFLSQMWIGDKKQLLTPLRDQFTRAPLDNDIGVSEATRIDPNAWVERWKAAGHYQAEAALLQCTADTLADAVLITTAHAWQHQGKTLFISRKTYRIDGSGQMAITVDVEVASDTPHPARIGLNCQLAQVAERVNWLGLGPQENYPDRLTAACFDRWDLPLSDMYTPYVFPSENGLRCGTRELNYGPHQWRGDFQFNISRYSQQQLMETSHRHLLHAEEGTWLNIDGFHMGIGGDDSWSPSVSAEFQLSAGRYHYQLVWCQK
# Microphthalmia-associated transcription factor, sequence (O75030 whole entry): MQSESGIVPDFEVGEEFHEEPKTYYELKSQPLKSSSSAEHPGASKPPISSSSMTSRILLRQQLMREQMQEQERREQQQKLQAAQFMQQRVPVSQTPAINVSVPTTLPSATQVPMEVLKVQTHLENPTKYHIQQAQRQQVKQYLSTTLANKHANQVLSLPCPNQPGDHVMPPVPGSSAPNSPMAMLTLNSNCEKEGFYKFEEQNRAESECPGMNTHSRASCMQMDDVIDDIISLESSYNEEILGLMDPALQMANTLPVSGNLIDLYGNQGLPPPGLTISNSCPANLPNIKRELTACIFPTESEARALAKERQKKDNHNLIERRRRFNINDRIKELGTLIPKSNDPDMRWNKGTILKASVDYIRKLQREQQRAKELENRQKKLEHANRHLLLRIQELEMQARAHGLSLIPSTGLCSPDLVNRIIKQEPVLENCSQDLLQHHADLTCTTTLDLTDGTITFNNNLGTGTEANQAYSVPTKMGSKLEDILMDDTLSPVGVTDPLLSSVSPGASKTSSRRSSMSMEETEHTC
# Beta-2 adrenergic receptor, sequence (P07550 whole entry): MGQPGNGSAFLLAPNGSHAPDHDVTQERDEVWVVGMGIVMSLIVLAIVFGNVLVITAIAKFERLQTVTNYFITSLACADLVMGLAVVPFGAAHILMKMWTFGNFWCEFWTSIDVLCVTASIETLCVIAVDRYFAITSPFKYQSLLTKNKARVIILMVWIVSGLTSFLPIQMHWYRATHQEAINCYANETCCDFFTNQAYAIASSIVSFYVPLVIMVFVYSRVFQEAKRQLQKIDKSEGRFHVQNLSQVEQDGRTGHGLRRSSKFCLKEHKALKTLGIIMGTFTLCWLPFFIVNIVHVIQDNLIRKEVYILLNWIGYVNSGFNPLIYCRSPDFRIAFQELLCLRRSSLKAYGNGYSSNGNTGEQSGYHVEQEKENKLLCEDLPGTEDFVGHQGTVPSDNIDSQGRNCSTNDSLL
# Serine/threonine-protein phosphatase, sequence (B9W6M3 whole entry): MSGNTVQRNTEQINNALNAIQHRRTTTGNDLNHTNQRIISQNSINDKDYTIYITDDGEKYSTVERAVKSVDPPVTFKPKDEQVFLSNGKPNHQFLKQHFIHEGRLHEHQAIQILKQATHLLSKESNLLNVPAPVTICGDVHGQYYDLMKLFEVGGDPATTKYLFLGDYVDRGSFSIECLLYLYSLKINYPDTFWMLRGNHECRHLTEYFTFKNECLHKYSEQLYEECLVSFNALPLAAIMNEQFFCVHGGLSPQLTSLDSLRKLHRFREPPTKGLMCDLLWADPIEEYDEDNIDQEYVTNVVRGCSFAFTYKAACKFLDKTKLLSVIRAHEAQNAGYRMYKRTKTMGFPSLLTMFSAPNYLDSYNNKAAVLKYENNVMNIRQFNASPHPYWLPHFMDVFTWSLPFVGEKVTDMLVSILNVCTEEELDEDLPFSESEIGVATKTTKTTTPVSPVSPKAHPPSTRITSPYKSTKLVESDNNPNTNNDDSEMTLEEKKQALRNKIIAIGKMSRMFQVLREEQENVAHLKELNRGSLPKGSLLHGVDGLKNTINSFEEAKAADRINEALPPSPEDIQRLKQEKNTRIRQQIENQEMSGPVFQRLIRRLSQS
smiles,measurement,setting,value
CCOC(=O)C1=C(C)c2ccccc2OC1(C(=O)OCC)C(C)C (centres undefined),AC50,Escherichia coli [1],379 µM (active)
O=C1Nc2ccc(Br)cc2/C1=C1/SC(=S)N(NS(=O)(=O)c2ccccc2)C1=O,IC50,[2],3 µM (not active)
same,IC50,Genome polyprotein,23.6 µM (active)
same,AC50,Keap1/Nrf2,12.2 µM (active)
same,IC50,Aminopeptidase N,< 1 µM (active)
O=C(NN=C1CCCCCC1)c1cn(-c2ccccc2)nc1-c1ccccc1,IC50,Phospholipase A2,20.8 µM (inactive)
same,IC50,Prothrombin,> 50 µM (not active)
same,IC50,Cysteine protease ATG4B,13.8 µM (active)
CNC(=S)N1CCN(c2c(F)cc3c(=O)c(C(=O)O)cn(C4CC4)c3c2OC)CC1C (centres undefined),IC50,cells,2.57 µM (active)
same,AC50,Escherichia coli [3],1.44 µM (active)
same,EC50,[4],0.179 µM (active)
same,EC50,Streptococcus,0.229 µM (active)
COc1ccc(/C=C/c2nc3ccccc3n2Cc2ccccc2OC)cc1,AC50,Trypsin,3.43 µM (active)
same,AC50,CAAX prenyl protease 2,3.33 µM (active)
same,EC50,[5],> 60 µM (inconclusive)
same,EC50,[6],0.663 µM (active)
C/C=C(/C)C(=O)O[C@H]1[C@@H](O)c2c(ccc3ccc(=O)oc23)OC1(C)C,AC50,CAAX prenyl protease 2,24.9 µM (active)
Cc1oc2ncnc(N)c2c1C,AC50,[7],1.4 µM (active)
COC(=O)Nc1ccc2c(c1)N(C(=O)CCN1CCOCC1)c1ccccc1S2,AC50,Escherichia coli [1],50.2 µM (active)
CC(C)NC(=S)N/N=C1\CCCCC1C1CCCCC1 (centres undefined),IC50,[8],> 40 µM (not active)
same,EC50,Beta-galactosidase,> 40 µM (inactive)
Cc1sc(NC(=O)c2ccco2)nc1-c1ccccc1,AC50,[7],3.67 µM (active)
Cc1nc2ccccn2c1C(=O)/C=C/c1cccc([N+](=O)[O-])c1,AC50,[9],26.6 µM (active)
same,IC50,Vero [10],17.2 µM (active)
same,AC50,INS1,8.14 µM (active)
same,CC50,Vero [11],24 µM (active)
same,AC50,A-375 [12],> 35 µM (active)
same,AC50,[13],56.9 µM (active)
same,CC50,Vero [14],5.91 µM (active)
same,IC50,[15],> 80 µM (inactive)
same,AC50,[16],6.9 µM (active)
same,AC50,A-375 [17],> 35 µM (active)
O=C(NCC(c1cccs1)N1CCOCC1)c1ccccc1NS(=O)(=O)c1ccc(Cl)c([N+](=O)[O-])c1 (centres undefined),CC50,Vero [18],38.8 µM (active)
same,IC50,Genome polyprotein,> 100 µM (active)
COc1ccc(C(=O)NC(=S)NNC(=O)c2ccc(C)cc2)cc1,EC50,[19],> 180 µM (inactive)
same,EC50,[20],5.92 µM (active)
same,CC50,Vero [11],> 25 µM (active)
same,EC50,[4],0.361 µM (active)
same,EC50,[21],> 150 µM (inactive)
same,EC50,Streptococcus,6.72 µM (active)
same,EC50,[22],1.12 µM (active)
Cn1c(-c2ncc(F)cc2F)cc2onc(-c3c(F)cccc3Cl)c2c1=O,AC50,HeLa,98 µM (active)
Cc1ccc(NC(=O)C(c2ccc(Cl)cc2)N2CCCCC2)cc1 (centres undefined),EC50,[23],2.99 µM (active)
Cc1nc(COC(=O)c2c(C)nn(-c3ccccc3)c2C)cs1,EC50,[24],> 91.1 µM (inactive)
same,EC50,[25],> 91.1 µM (inactive)
same,AC50,HeLa,76 µM (active)
COc1ccc(N2C(=O)c3ccccc3NC23CCC(C)CC3)cc1 (centres undefined),IC50,Phospholipase A2,7.99 µM (active)
same,IC50,Cysteine protease ATG4B,21.1 µM (inactive)
CCN1CCN(CCCNC(=O)c2ccc3c(Cl)c4c(nc3c2)CCCC4)CC1,CC50,Vero [11],18.7 µM (active)
same,AC50,A-375 [12],> 11 µM (active)
same,AC50,A-375 [17],> 11 µM (active)
NC(Cc1ccc(C(F)(F)F)cc1)c1csc(NC(=O)Nc2ccccc2Oc2ccccc2)n1 (centres undefined),EC50,HEK293 [26],> 59.6 µM (inactive)
same,EC50,HEK293 [27],> 59.6 µM (inactive)
COC(=O)C1C(O)C(C)C(O)C(C)(O)/C=C\C=C(/C)C(=O)Nc2c(C)c(OC(C)=O)c3c(c2O)C(=O)C(C)=C2OCOC(=C23)/C(C)=C/C(C)(O)C(O)C(C)C1O (centres undefined),AC50,Escherichia coli [3],> 150 µM (inactive)
